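All cell lines were grown in 96-well plates and treated with compound for 48 hours. Abbreviation: GI50, concentration required for 50% inhibition of growth. TGI: concentration producing complete growth inhibition.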
Assays:
Assay in all cases: NCI anticancer screen, dose series, 48 h
CAKI-1 renal = tested on: CAKI-1 renal
UACC-257 melanoma = tested on: UACC-257 melanoma
HT29 colon = tested on: HT29 colon
KM12 colon = tested on: KM12 colon
EKVX NSCLC = tested on: EKVX NSCLC
HCC-2998 colon = tested on: HCC-2998 colon
DU-145 prostate = tested on: DU-145 prostate
MCF7 breast = tested on: MCF7 breast
HS 578T breast = tested on: HS 578T breast
NCI/ADR-RES ovarian = tested on: NCI/ADR-RES ovarian

SMILES | TGI (CAKI-1 renal) [µM] | TGI (UACC-257 melanoma) [µM] | TGI (HT29 colon) [µM] | TGI (KM12 colon) [µM] | TGI (EKVX NSCLC) [µM] | TGI (HCC-2998 colon) [µM] | TGI (DU-145 prostate) [µM] | TGI (MCF7 breast) [µM] | TGI (HS 578T breast) [µM] | GI50 (CAKI-1 renal) [µM] | GI50 (EKVX NSCLC) [µM] | GI50 (HCC-2998 colon) [µM] | GI50 (DU-145 prostate) [µM] | GI50 (UACC-257 melanoma) [µM] | GI50 (NCI/ADR-RES ovarian) [µM] | TGI (NCI/ADR-RES ovarian) [µM] | GI50 (HT29 colon) [µM] | GI50 (KM12 colon) [µM] | GI50 (MCF7 breast) [µM] | GI50 (HS 578T breast) [µM]
O=C(Nc1c(O)[nH]c(=S)[nH]c1=O)c1ccccc1F | > 100 | > 100 | > 100 | > 100 |  |  |  |  |  |  |  |  |  |  |  |  |  |  |  | 
COc1cccc2c1C(=O)C=CC2=O | 13 | 29 | 26.9 | 25 | 32.8 | 29.3 | 33.5 | 4.82 | > 100 |  |  |  |  |  |  |  |  |  |  | 
CN(C)c1ccc2c(=O)c3ccccc3oc2n1 | > 100 | > 100 |  | > 100 | > 100 | > 100 |  |  |  |  |  |  |  |  |  |  |  |  |  | 
CCN(CC)CCOCC[C@H]1CC[C@H]2[C@@H]3[C@H](C)Cc4cc(OS(N)(=O)=O)ccc4[C@H]3CC[C@]12C | 2.97 | 3.34 | 1.03 | 2.55 | 3.65 | 3.23 | 2.94 | 2.28 |  | 1.36 | 0.765 | 1.63 | 1.48 | 1.74 | 1.57 | 3.87 | 0.244 | 1.25 | 0.219 | 
Cc1ccc(S(=O)(=O)N[C@H](C(=O)O)c2ccccc2)cc1 | > 100 | > 100 | > 100 | > 100 | > 100 | > 100 |  |  |  |  |  |  |  |  |  |  |  |  |  | 
Cc1ccc(NC(=O)c2cc3cc(N=Nc4ccc(Br)cc4)ccc3oc2=O)cc1 | > 100 | > 100 | > 100 | > 100 |  | > 100 |  |  |  |  |  |  |  |  |  |  |  |  |  | 
N#Cc1ccccc1NC(=O)/C(=N\N)C(C(=O)c1ccncc1)C1OC(=O)c2ccccc21 (stereo not drawn) |  | > 100 | > 100 | > 100 | > 100 | > 100 |  |  |  |  |  |  |  |  |  |  |  |  |  | 
CC1CC[C@]2(C(=O)O)CCC3(COC(=O)/C=C\c4ccc(O)cc4)C(=CCC4[C@@]5(C)CC[C@H](O)C(C)(C)C5CC[C@]43C)[C@@H]2[C@H]1C (stereo partly drawn) | 48.3 | 69.6 | 35.5 | 25.7 | 32.8 | 33 |  |  |  |  |  |  |  |  |  |  |  |  |  | 
CCNC(=O)[C@@H]1CCCN2C(=O)CC[C@H](NC(=O)[C@H](Cc3ccc(OP(=O)(O)O)cc3)NC(C)=O)C(=O)N12 | > 25 | > 25 | > 25 | > 25 |  | > 25 | > 25 | > 25 | > 25 | > 25 |  | > 25 | > 25 | > 25 | > 25 | > 25 | > 25 | > 25 | > 25 | > 25
Cc1ccccc1NC(=O)C(=O)C(C#N)c1ccc(Cl)cc1 (stereo not drawn) | > 100 | > 100 | > 100 | > 100 | > 100 | 75.9 |  |  |  |  |  |  |  |  |  |  |  |  |  | 
CN1C(=O)CC(c2cccc(C3CC(=O)N(C)C3=O)n2)C1=O (stereo not drawn) | > 100 | > 100 | > 100 | > 100 | > 100 | > 100 |  |  |  |  |  |  |  |  |  |  |  |  |  | 
COc1ccccc1/C=C(\C#N)c1ccccc1 | > 100 | > 100 | > 100 | > 100 |  | > 100 |  |  |  |  |  |  |  |  |  |  |  |  |  | 
CN1N=CSC12C(=O)N(c1ccc(Cl)cc1)C(=O)N2c1ccc(Cl)cc1 (stereo not drawn) | > 100 | 33.5 | 32 | 30.3 | > 100 | 37.7 |  |  |  |  |  |  |  |  |  |  |  |  |  | 
COc1ccccc1NC(=O)c1sc2nc3c(cc2c1N)C(=O)CCC3 |  |  |  |  |  | > 100 | > 100 | > 100 | > 100 |  |  | > 100 | > 100 |  | 7.14 | > 100 |  |  | 4.8 | 6.77
O=C1C(Cl)=C(Nc2cccc(Cl)c2)C(=O)N1Cc1ccccc1 | 27.7 |  |  | 26.9 |  | 18.1 | 30.6 | > 100 | 27.5 | 5.06 |  | 4.59 | 15.3 |  | 6.87 | 24.7 |  | 11.5 | 14.9 | 6.34
O=C(Nc1ccccc1-c1n[nH]c(=S)[nH]c1=O)C(F)(F)F | > 100 |  | > 100 | > 100 | > 100 | > 100 |  |  |  |  |  |  |  |  |  |  |  |  |  | 
COc1ccc(C2CC(=O)c3c(O)cc(O)cc3O2)cc1O (stereo not drawn) | > 100 | > 100 | > 100 | > 100 | > 100 | > 100 |  |  |  |  |  |  |  |  |  |  |  |  |  | 
Cc1cn(Cc2ccccc2CCO)c(=S)[nH]c1=O | > 100 | > 100 | > 100 | > 100 | > 100 |  |  |  |  |  |  |  |  |  |  |  |  |  |  | 
CC(C)(C)OC1=C(OC(C)(C)C)C(O)(c2ccccc2)C1=O (stereo not drawn) |  |  | > 100 | > 100 | > 100 | > 100 |  |  |  |  |  |  |  |  |  |  |  |  |  | 

— PubChem BioAssay (NCI)
